Experimental data published in ChEMBL document CHEMBL1201862, “PubChem BioAssay data set” (2004).
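Protocol summary: plate cells (96-well), add compound at 5 concentrations, incubate 48 h, interpolate endpoints linearly. At the GI50, growth is halved.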 Active and inactive are the calls of the source. No stated cut-off is given here; in the data, active = GI50 up to about 1.1 µM and inactive = higher.

Key:
Experiment in all cases: growth of human tumour cells (NCI), 48 h
ACHN = test system: ACHN
NCI-H460 = test system: NCI-H460
UACC-62 = test system: UACC-62
HT-29 = test system: HT-29
K562 = test system: K562
SF-295 = test system: SF-295
HOP-92 = test system: HOP-92
TK-10 = test system: TK-10
SF-268 = test system: SF-268
SW-620 = test system: SW-620
SK-MEL-2 = test system: SK-MEL-2
EKVX = test system: EKVX
RXF 393 = test system: RXF 393
SK-OV-3 = test system: SK-OV-3
Malme-3M = test system: Malme-3M
OVCAR-5 = test system: OVCAR-5
DLD-1 = test system: DLD-1
PC-3 = test system: PC-3
U-251 = test system: U-251
NCI/ADR-RES = test system: NCI/ADR-RES

Measured: GI50

Cn1c(=O)n(CC2CS2)c2ccccc21 (centres undefined)
inactive: ACHN > 100 µM | NCI-H460 > 100 µM | UACC-62 > 100 µM | HT-29 > 100 µM | K562 > 100 µM | SF-295 > 100 µM | HOP-92 68.4 µM | TK-10 > 100 µM | SF-268 > 100 µM | SW-620 > 100 µM | SK-MEL-2 > 100 µM | EKVX > 100 µM | RXF 393 > 100 µM | SK-OV-3 > 100 µM | Malme-3M > 100 µM | OVCAR-5 > 100 µM | DLD-1 > 100 µM

CNC(=O)OCc1nc(SC)n(C)c1COC(=O)NC
inactive: ACHN 64.1 µM | NCI-H460 59.6 µM | UACC-62 60.1 µM | HT-29 205 µM | K562 147 µM | SF-295 187 µM | HOP-92 111 µM | PC-3 171 µM | U-251 166 µM | NCI/ADR-RES 204 µM | TK-10 177 µM | SF-268 119 µM | SW-620 172 µM | SK-MEL-2 119 µM | EKVX 230 µM | RXF 393 50.8 µM | SK-OV-3 63 µM | Malme-3M 113 µM | OVCAR-5 170 µM | DLD-1 183 µM

COc1cc(OC)c(C#N)c(OC)c1C
inactive: ACHN > 100 µM | NCI-H460 > 100 µM | UACC-62 > 100 µM | HT-29 > 100 µM | K562 > 100 µM | SF-295 > 100 µM | HOP-92 > 100 µM | U-251 > 100 µM | TK-10 > 100 µM | SF-268 > 100 µM | SW-620 > 100 µM | SK-MEL-2 > 100 µM | EKVX > 100 µM | RXF 393 > 100 µM | SK-OV-3 > 100 µM | Malme-3M > 100 µM | OVCAR-5 98.4 µM | DLD-1 > 100 µM

O=CC1CCCc2ccccc21 (centres undefined)
inactive: ACHN > 100 µM | NCI-H460 > 61.8 µM | UACC-62 > 100 µM | HT-29 > 100 µM | K562 > 60 µM | SF-295 > 100 µM | HOP-92 > 100 µM | U-251 > 41.5 µM | TK-10 > 100 µM | SF-268 > 31.6 µM | SW-620 > 40.4 µM | SK-MEL-2 > 100 µM | EKVX > 100 µM | RXF 393 > 100 µM | SK-OV-3 > 100 µM | Malme-3M > 100 µM | OVCAR-5 > 100 µM | DLD-1 > 43.1 µM

O=C1CCC(=O)c2cc(Br)ccc2N1
inactive: ACHN > 100 µM | NCI-H460 > 100 µM | UACC-62 > 100 µM | HT-29 > 100 µM | K562 > 100 µM | SF-295 > 100 µM | HOP-92 > 100 µM | U-251 99.3 µM | TK-10 > 100 µM | SF-268 > 100 µM | SW-620 > 57.8 µM | SK-MEL-2 > 100 µM | EKVX > 63.2 µM | RXF 393 > 74.1 µM | SK-OV-3 > 100 µM | Malme-3M > 100 µM | OVCAR-5 > 100 µM | DLD-1 > 100 µM

Cc1ccc2c(c1CCCC(C)(C)O)C(=O)C(O)=C(C(C)C)C2=O
inactive: ACHN 63 µM | NCI-H460 47.2 µM | HT-29 > 100 µM | K562 48.1 µM | SF-295 81.7 µM | HOP-92 > 100 µM | U-251 53.1 µM | TK-10 > 100 µM | SF-268 59.4 µM | SW-620 > 100 µM | SK-MEL-2 36.7 µM | EKVX 47.2 µM | RXF 393 53.5 µM | SK-OV-3 > 100 µM | Malme-3M > 100 µM | DLD-1 > 100 µM

CC1(c2ccc(Cl)cc2)C2C(=O)NC(=O)C1C(=O)NC2=O (centres undefined)
inactive: ACHN > 100 µM | NCI-H460 > 100 µM | UACC-62 > 100 µM | HT-29 > 100 µM | K562 > 100 µM | SF-295 > 100 µM | HOP-92 > 100 µM | TK-10 > 100 µM | SF-268 > 100 µM | SW-620 > 100 µM | SK-MEL-2 > 100 µM | EKVX > 100 µM | RXF 393 > 100 µM | SK-OV-3 > 100 µM | Malme-3M > 100 µM | OVCAR-5 > 100 µM | DLD-1 > 100 µM

C[P+](C)(C)c1ccccc1
inactive: ACHN > 100 µM | NCI-H460 > 100 µM | UACC-62 > 100 µM | HT-29 > 100 µM | K562 > 100 µM | SF-295 > 100 µM | HOP-92 > 100 µM | U-251 > 100 µM | TK-10 > 100 µM | SF-268 > 100 µM | SW-620 > 100 µM | SK-MEL-2 > 100 µM | EKVX > 100 µM | RXF 393 > 100 µM | SK-OV-3 > 100 µM | Malme-3M > 100 µM | OVCAR-5 > 100 µM | DLD-1 > 100 µM

CCOC(OC1=C(C#N)CCCC1)C(CC)[Se]c1ccccc1[N+](=O)[O-] (centres undefined)
inactive: ACHN 29.1 µM | NCI-H460 34.2 µM | UACC-62 22 µM | HT-29 16.8 µM | K562 33.6 µM | SF-295 22.2 µM | HOP-92 18.4 µM | U-251 16.6 µM | TK-10 76.2 µM | SF-268 23 µM | SK-MEL-2 21 µM | EKVX 30.8 µM | RXF 393 28.8 µM | SK-OV-3 63.8 µM | Malme-3M 22.8 µM | OVCAR-5 31.4 µM | DLD-1 17.9 µM

CN1OC(=O)N(C)C1c1ccccc1 (centres undefined)
inactive: NCI-H460 > 100 µM | UACC-62 > 100 µM | HT-29 > 100 µM | K562 > 100 µM | SF-295 > 100 µM | HOP-92 > 100 µM | U-251 > 100 µM | NCI/ADR-RES > 100 µM | SF-268 > 100 µM | SW-620 > 100 µM | SK-MEL-2 > 100 µM | EKVX > 100 µM | RXF 393 > 100 µM | SK-OV-3 > 100 µM | Malme-3M > 100 µM | OVCAR-5 > 100 µM | DLD-1 > 100 µM

COc1ccc(C2Oc3cc(OC)c(O)cc3[C@@H]2C)cc1 (some centres undefined)
inactive: ACHN 16.5 µM | NCI-H460 57.9 µM | UACC-62 > 10 µM | HT-29 40.7 µM | K562 31.5 µM | SF-295 > 100 µM | HOP-92 15.3 µM | U-251 > 100 µM | TK-10 45.8 µM | SF-268 48.8 µM | SW-620 17.1 µM | SK-MEL-2 43 µM | EKVX 56.4 µM | RXF 393 28.2 µM | SK-OV-3 > 100 µM | Malme-3M 78 µM | OVCAR-5 > 100 µM | DLD-1 19.9 µM
